Read-outs that look alike come from different tables or passages of the source.

This assay concerns the target T1, human mGluR2 receptor (Homo sapiens, UniProt Q14416).
T1 construct: expressed in transfected cells
In words: [35S]-GTPγS binding assay of mGluR2 receptor activation. It counts as biochemical. The essentials: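 CHO membranes stably expressing human mGluR2 (30 μg) preincubated 15 min at room temperature with compound (3 nM–300 μM), then 1 μM glutamate, 30 μM GDP, 0.1 nM [35S]-GTPγS, 30 min at 30° C in HEPES/NaCl/MgCl2. Filtration counting; EC50 and Emax relative to maximal glutamate effect by non-linear regression.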
(GTPγS is a poorly hydrolysed GTP analogue; its binding reports G protein activation.)

T1 sequence (Q14416 19-872): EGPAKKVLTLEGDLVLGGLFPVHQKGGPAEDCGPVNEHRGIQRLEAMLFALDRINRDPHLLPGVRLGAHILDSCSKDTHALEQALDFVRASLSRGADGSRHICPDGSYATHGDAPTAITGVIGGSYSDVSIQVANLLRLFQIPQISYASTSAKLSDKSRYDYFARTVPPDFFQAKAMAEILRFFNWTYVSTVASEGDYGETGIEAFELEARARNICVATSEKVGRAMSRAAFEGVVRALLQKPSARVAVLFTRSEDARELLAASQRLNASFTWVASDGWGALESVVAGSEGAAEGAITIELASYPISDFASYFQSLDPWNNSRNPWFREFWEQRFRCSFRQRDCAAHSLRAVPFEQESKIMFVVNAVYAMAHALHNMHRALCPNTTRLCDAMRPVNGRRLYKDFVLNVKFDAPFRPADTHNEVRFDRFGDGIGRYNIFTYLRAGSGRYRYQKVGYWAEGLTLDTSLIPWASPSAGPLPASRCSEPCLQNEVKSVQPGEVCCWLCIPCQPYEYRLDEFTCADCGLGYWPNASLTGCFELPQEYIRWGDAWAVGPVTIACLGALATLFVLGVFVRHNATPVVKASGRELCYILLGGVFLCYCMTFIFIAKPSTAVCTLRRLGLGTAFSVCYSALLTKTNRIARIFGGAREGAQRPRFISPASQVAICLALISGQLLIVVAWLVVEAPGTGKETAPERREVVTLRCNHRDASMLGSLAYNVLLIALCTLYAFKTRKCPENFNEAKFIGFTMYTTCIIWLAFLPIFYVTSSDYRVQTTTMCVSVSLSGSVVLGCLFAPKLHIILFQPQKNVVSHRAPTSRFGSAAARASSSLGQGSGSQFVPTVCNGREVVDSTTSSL

The term EC50 denotes the midpoint of the concentration-response curve. A higher EC50 goes with weaker potency. Compound `Cc1cc(-c2nc(CN(C)C)no2)cc2c1C(=O)N(Cc1ccc(OC(F)(F)F)cc1)C2` [Example 180, 5-(3-Dimethylamino-methyl-[1,2,4]oxadiazol-5-yl)-7-methyl-2-(4-trifluorometh-oxy-benzyl)-2,3-dihydro-isoindol-1-one] registered a concentration giving a half-maximal response (EC50) of 100 nM.
The compound `CNCc1nnc(-c2cc(C)c3c(c2)CN(Cc2ccc(OC(F)(F)F)cc2)C3=O)o1` [Example 181, 7-Methyl-5-(5-methylaminomethyl-[1,3,4]oxadiazol-2-yl)-2-(4-trifluorometh-oxy-benzyl)-2,3-dihydro-isoindol-1-one] had an EC50 of 2120 nM.
`O=C1c2c(Cl)cc(CC3CCN(Cc4ccncc4)CC3)cc2CN1Cc1ccc(OC(F)(F)F)cc1` [Example 182] yielded an EC50 of 40 nM.
`Cc1cc(CN(C)Cc2ccccc2)cc2c1C(=O)N(Cc1ccc(OC(F)(F)F)cc1)C2` [compound 35, 5-[(Benzylmethylamino)-methyl]-7-methyl-2-(4-trifluoromethoxy-benzyl)-2,3-dihydro-isoindol-1-one] showed a concentration for a half-maximal effect (EC50) (membranes from CHO cells stably expressing human mGluR2, 1 μM glutamate) of 70 nM.

The values above are taken from patent publication US7968570B2, “Isoindolone compounds and their use as metabotropic glutamate receptor potentiators” (AstraZeneca AB, priority 2004, dated 2011).
